Results reported in patent US8785488B2 (Exelixis Patent Company LLC, priority 2009, dated 2014).
Where two headings read alike, the source gives them in different places.

Key:
h-TGR5 = target: T1, h-TGR5 (Homo sapiens, UniProt Q8TDU6); assay: TGR5 cAMP Assay using Cisbio cAMP Dynamic2 htrf kit (hTGR5CRE-luc HEK 293 cells); type: cell-based
T1 construct: expressed in transfected cells
T1 sequence (Q8TDU6 1-330): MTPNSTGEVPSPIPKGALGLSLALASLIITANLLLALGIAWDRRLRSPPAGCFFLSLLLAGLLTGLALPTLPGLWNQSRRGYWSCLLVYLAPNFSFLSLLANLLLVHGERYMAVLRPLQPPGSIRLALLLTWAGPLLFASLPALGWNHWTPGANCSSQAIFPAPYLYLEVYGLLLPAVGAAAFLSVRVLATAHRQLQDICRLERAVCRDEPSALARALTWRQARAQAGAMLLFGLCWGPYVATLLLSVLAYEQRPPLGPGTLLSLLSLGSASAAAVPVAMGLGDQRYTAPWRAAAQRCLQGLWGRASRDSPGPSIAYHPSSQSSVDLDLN
How it was run: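 […], 4000 hTGR5CRE-luc HEK 293 cells per well, with 0.5 mM IBMX and d2-cAMP, were incubated 30 min at room temperature with compounds in 8-point half-log series, in quadruplicate.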

human TGR5 (h-TGR5) = target: T2, human TGR5 (h-TGR5) (Homo sapiens, UniProt Q8TDU6); assay: TGR5/CRE-Luciferiase Assay (HEK 293 hTGR5/CRE-Luc cells); type: cell-based
T2 construct: expressed in transfected cells
T2 sequence (Q8TDU6 1-330): T1 sequence (Q8TDU6 1-330)
How it was run: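 HEK293 cells stably carrying hTGR5 and a CRE-luciferase reporter were exposed to serially diluted compounds (diluted in DMEM with 5% DMSO) for 6 h. Cells were then lysed in luciferase buffer, luminescence was read, and EC50 values were derived from dose-response curves.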

[1] = h-TGR5 cAMP EC50, Table 1, read-out: cAMP (EC50)
[2] = h-TGR5 CRE-Luc EC50, Table 1, read-out: CRE-Luc (EC50)
[3] = hTGR5CRE-luc HEK 293 cells, htrf cAMP, Table 2, read-out: h-TGR5 cAMP EC50 (cAMP)
[4] = HEK 293 hTGR5/CRE-Luc cells, 6 hours incubation, luciferase activity, Table 2, read-out: h-TGR5CRE-Luc EC50 (CRE-Luc)

Row | EC50 (h-TGR5; [1]) [nM] | EC50 (human TGR5 (h-TGR5); [2]) [nM] | EC50 (h-TGR5; [3]) [nM] | EC50 (human TGR5 (h-TGR5); [4]) [nM] | Structure (SMILES)
1 | 100 to 1000 | 100 to 1000 | – | – | CC(C)(c1ccc(Cl)c(Cl)c1)c1cnc(SCc2c(F)cc(-c3nnn[nH]3)cc2F)n1-c1ccc(F)cc1 [5-{4-[({5-[1-(3,4-dichlorophenyl)-1-methylethyl]-1-(4-fluorophenyl)-1H-imidazol-2-yl}thio)methyl]-3,5-difluorophenyl}-1H-tetrazole]
2 | 100 to 1000 | 100 to 1000 | – | – | CC(C)(c1ccc(Cl)c(Cl)c1)c1cnc(SCc2ccc(-c3nnn[nH]3)cc2F)n1-c1ccc(F)cc1 [5-{4-[({5-[1-(3,4-dichlorophenyl)-1-methylethyl]-1-(4-fluorophenyl)-1H-imidazol-2-yl}thio)methyl]-3-fluorophenyl}-1H-tetrazole]
3 | 100 to 1000 | 100 to 1000 | – | – | CC(C)(c1ccc(Cl)c(Cl)c1)c1cnc(SCc2cc(-c3nnn[nH]3)ccc2Cl)n1-c1ccc(F)cc1 [5-{4-chloro-3-[({5-[1-(3,4-dichlorophenyl)-1-methylethyl]-1-(4-fluorophenyl)-1H-imidazol-2-yl}thio)methyl]phenyl}-1H-tetrazole]
4 | < 100 | < 100 | – | – | COc1ccc(Cc2cnc(SCc3ccc(F)cc3Cl)n2-c2ccc(F)cc2)cc1OC [5-{[3,4-bis(methyloxy)phenyl]methyl}-2-{[(2-chloro-4-fluorophenyl)methyl]thio}-1-(4-fluorophenyl)-1H-imidazole]
5 | 100 to 1000 | 100 to 1000 | – | – | CC(C)(c1ccc(CO)c(Cl)c1)c1cnc(SCc2ccc(F)cc2Cl)n1-c1ccc(F)cc1 [(2-chloro-4-{1-[2-{[(2-chloro-4-fluorophenyl)methyl]thio}-1-(4-fluorophenyl)-1H-imidazol-5-yl]-1-methylethyl}phenyl)methanol]
6 | < 100 | < 100 | – | – | COc1cc(C(C)(C)c2cnc(SCc3c(F)cc(OCC/C=N/NC(=N)N)cc3Cl)n2-c2ccc(F)cc2)ccc1Cl [(2E)-2-(3-{[3-chloro-4-({[5-{1-[4-chloro-3-(methyloxy)phenyl]-1-methylethyl}-1-(4-fluorophenyl)-1H-imidazol-2-yl]thio}methyl)-5-fluorophenyl]oxy}propylidene) hydrazinecarboximidamide]
7 | 100 to 1000 | 100 to 1000 | – | – | CC(C)(c1ccc(Cl)c(Cl)c1)c1cnc(SCc2ccc(OCC(=O)O)c(S(N)(=O)=O)c2)n1-c1ccc(F)cc1 [({2-(aminosulfonyl)-4-[({5-[1-(3,4-dichlorophenyl)-1-methylethyl]-1-(4-fluorophenyl)-1H-imidazol-2-yl}thio)methyl]phenyl}oxy)acetic acid]
8 | 100 to 1000 | 100 to 1000 | – | – | CC(C)(c1ccc(Cl)c(Cl)c1)c1cnc(SCc2ccc(F)c(OCC(=O)O)c2)n1-c1ccc(F)cc1 [({5-[({5-[1-(3,4-dichlorophenyl)-1-methylethyl]-1-(4-fluorophenyl)-1H-imidazol-2-yl}thio)methyl]-2-fluorophenyl}oxy)acetic acid]
9 | < 100 | < 100 | – | – | COc1cc(C(C)(C)c2cnc(SCc3c(F)cc(C(=O)NCS(=O)(=O)O)cc3Cl)n2-c2ccc(F)cc2)ccc1Cl [({[3-chloro-4-({[5-{1-[4-chloro-3-(methyloxy)phenyl]-1-methylethyl}-1-(4-fluorophenyl)-1H-imidazol-2-yl]thio}methyl)-5-fluorophenyl]carbonyl}amino) methanesulfonic acid]
10 | < 100 | < 100 | – | – | COc1cc(C(C)(C)c2cnc(SCc3c(F)cc(C(=O)NCS(=O)(=O)O)cc3F)n2-c2ccc(F)cc2)ccc1Cl [({[4-({[5-{1-[4-chloro-3-(methyloxy)phenyl]-1-methylethyl}-1-(4-fluorophenyl)-1H-imidazol-2-yl]thio}methyl)-3,5-difluorophenyl]carbonyl}amino)methanesulfonic acid]
11 | < 100 | < 100 | – | – | COc1cc(C(C)(C)c2cnc(SCc3ccc(C(=O)NCS(=O)(=O)O)cc3F)n2-c2ccc(F)cc2)ccc1Cl [({[4-({[5-{1-[4-chloro-3-(methyloxy)phenyl]-1-methylethyl}-1-(4-fluorophenyl)-1H-imidazol-2-yl]thio}methyl)-3-fluorophenyl]carbonyl}amino)methanesulfonic acid]
12 | – | – | < 100 | < 100 | CC(C)(c1ccc2nccnc2c1)c1nnc(SCc2c(F)cccc2Cl)n1-c1ccc(F)cc1 [Example 45]
13 | – | – | < 100 | < 100 | CC(C)(c1ccc2cccnc2c1)c1nnc(SCc2c(F)cccc2Cl)n1-c1ccc(F)cc1 [Example 47]
14 | – | – | 100 to 1000 | 100 to 1000 | CC(C)(c1ccc(Cl)c(Cl)c1)c1nnc(SCc2c(F)cc(C(=O)O)cc2F)n1-c1ccc(F)cc1 [Example 48]
15 | – | – | 100 to 1000 | < 100 | COc1cc(-n2c(SCc3ccc(Cl)c(-c4nnn[nH]4)c3)nnc2C(C)(C)c2ccc(Cl)c(OC)c2)ccc1F [Example 49]
16 | < 100 | < 100 | – | – | CC(C)(c1ccc2onc(N)c2c1)c1cnc(SCc2c(F)cc(C(=O)NC(CCCNC(=N)N)C(=O)O)cc2Cl)n1-c1ccc(F)cc1 [N-2-({4-[({5-[1-(3-amino-1,2-benzisoxazol-5-yl)-1-methylethyl]-1-(4-fluorophenyl)-1H-imidazol-2-yl}thio)methyl]-3-chloro-5-fluorophenyl}carbonyl)-D-arginine]
17 | < 100 | < 100 | – | – | COc1cc(-n2c(C(C)(C)c3ccc4onc(N)c4c3)cnc2SCc2c(F)cc(C(=O)NC(CCCNC(=N)N)C(=O)O)cc2Cl)ccc1F [N-2-({4-[({5-[1-(3-amino-1,2-benzisoxazol-5-yl)-1-methylethyl]-1-[4-fluoro-3-(methyloxy)phenyl]-1H-imidazol-2-yl}thio)methyl]-3-chloro-5-fluorophenyl}carbonyl]-D-arginine]
18 | < 100 | < 100 | – | – | COc1cc(-n2c(C(C)(C)c3ccc(S(N)(=O)=O)c(Cl)c3)cnc2SCc2c(F)cc(C(=O)NC(CCCNC(=N)N)C(=O)O)cc2Cl)ccc1F [N-2-[(4-{[(5-{1-[4-(aminosulfonyl)-3-chlorophenyl]-1-methylethyl}-1-[4-fluoro-3-(methyloxy)phenyl]-1H-imidazol-2-yl)thio]methyl}-3-chloro-5-fluorophenyl)carbonyl]-D-arginine]
19 | < 100 | < 100 | – | – | COc1cc(C(C)(C)c2cnc(SCc3c(F)cc(C(=O)NCCCC(NC(=N)N)C(=O)O)cc3Cl)n2-c2ccc(F)cc2)ccc1Cl [N-2-[amino(imino)methyl]-N-5-{[3-chloro-4-({[5-{1-[4-chloro-3-(methyloxy)phenyl]-1-methylethyl}-1-(4-fluorophenyl)-1H-imidazol-2-yl]thio}methyl)-5-fluorophenyl]carbonyl}-L-ornithine]
20 | 100 to 1000 | 100 to 1000 | – | – | CC(C)(c1ccc(Cl)c(Cl)c1)c1cnc(CCc2c(F)cc(C(=O)N[C@@H](CCCNC(=N)N)C(=O)O)cc2Cl)n1-c1ccc(F)cc1 [N-2-{[3-chloro-4-(2-{5-[1-(3,4-dichlorophenyl)-1-methylethyl]-1-(4-fluorophenyl)-1H-imidazol-2-yl}ethyl)-5-fluorophenyl]carbonyl}-L-arginine]
21 | < 100 | < 100 | – | – | COc1cc(C(C)(C)c2cnc(SCc3c(F)cc(C(=O)N[C@H](CCCNC(=N)N)C(=O)O)cc3Cl)n2-c2ccc(F)cc2)ccc1Cl [N-2-{[3-chloro-4-({[5-{1-[4-chloro-3-(methyloxy)phenyl]-1-methylethyl}-1-(4-fluorophenyl)-1H-imidazol-2-yl]thio}methyl)-5-fluorophenyl]carbonyl}-D-arginine]
22 | < 100 | < 100 | – | – | COc1cc(C(C)(C)c2cnc(SCc3c(F)cc(C(=O)N[C@@H](CCCNC(=N)N)C(=O)O)cc3Cl)n2-c2ccc(F)cc2)ccc1Cl [N-2-{[3-chloro-4-({[5-{1-[4-chloro-3-(methyloxy)phenyl]-1-methylethyl}-1-(4-fluorophenyl)-1H-imidazol-2-yl]thio}methyl)-5-fluorophenyl]carbonyl}-L-arginine]
23 | < 100 | < 100 | – | – | COc1cc(C(C)(C)c2cnc(SCc3c(F)cc(C(=O)N[C@@H](CCCN)C(=O)O)cc3Cl)n2-c2ccc(F)cc2)ccc1Cl [N-2-{[3-chloro-4-({[5-{1-[4-chloro-3-(methyloxy)phenyl]-1-methylethyl}-1-(4-fluorophenyl)-1H-imidazol-2-yl]thio}methyl)-5-fluorophenyl]carbonyl}-L-ornithine]
24 | < 100 | < 100 | – | – | COc1cc(C(C)(C)c2cnc(SCc3c(F)cc(C(=O)NC(CCCNC(=N)N)C(=O)O)cc3Cl)n2-c2ccc(F)cc2)ccc1F [N-2-{[3-chloro-5-fluoro-4-({[5-{1-[4-fluoro-3-(methyloxy)phenyl]-1-methylethyl}-1-(4-fluorophenyl)-1H-imidazol-2-yl]thio}methyl)phenyl]carbonyl}-D-arginine]
25 | < 100 | < 100 | – | – | COc1cc(C(C)(C)c2cnc(SCc3c(F)cc(C(=O)NCCCC(N)C(=O)O)cc3Cl)n2-c2ccc(F)cc2)ccc1Cl [N-5-{[3-chloro-4-({[5-{1-[4-chloro-3-(methyloxy)phenyl]-1-methylethyl}-1-(4-fluorophenyl)-1H-imidazol-2-yl]thio}methyl)-5-fluorophenyl]carbonyl}-L-ornithine]
